Several values for one entry are separate records, joined by “and”; a condition that tells them apart may be missing. Equal values may be shown once. Toxic doses and inconclusive results are not listed. Rule for the calls: active = survival T/C of 150% or more; inactive = T/C below 125% in these data. Square brackets hold non-standard residues; d marks the D form. Peptide text beside a SMILES is read from it. * marks the point of attachment. ξ: configuration not given here. Cbz = O=C(OCc1ccccc1)*; ξT = CC(O)C(N)C(=O)O; OBn = c1ccc(CO*)cc1
Tested on: P388 leukemia ip, CD2F1 mice, survival T/C
Experiment: NCI In Vivo Anticancer Drug Screen. Data for tumor model P388 Leukemia (intraperitoneal) in CD2F1 (CDF1) mice
Settings: endpoint: median survival time, higher = longer survival
Outline: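 Mice carrying the transplanted tumor received test compound or vehicle. Survival was recorded in each group, and the value is the treated-group measurement divided by that of the vehicle-treated control group.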

[1] = dose: 2.0 mg/kg/injection, schedule: Q01DX009 (ip), vehicle: Klucel (hydroxypropylcellulose) (HPC)
[2] = dose: 4.0 mg/kg/injection, schedule: Q01DX009 (ip), vehicle: Klucel (hydroxypropylcellulose) (HPC)
[3] = dose: 8.0 mg/kg/injection, schedule: Q01DX009 (ip), vehicle: Klucel (hydroxypropylcellulose) (HPC)
[4] = dose: 16.0 mg/kg/injection, schedule: Q01DX009 (ip), vehicle: Klucel (hydroxypropylcellulose) (HPC)
[5] = dose: 3.13 mg/kg/injection, schedule: Q01DX005 (ip), vehicle: saline with Tween-80
[6] = dose: 6.25 mg/kg/injection, schedule: Q01DX005 (ip), vehicle: saline with Tween-80
[7] = dose: 12.5 mg/kg/injection, schedule: Q01DX005 (ip), vehicle: saline with Tween-80
[8] = dose: 50.0 mg/kg/injection, schedule: Q01DX009 (ip), vehicle: saline with Tween-80
[9] = dose: 100.0 mg/kg/injection, schedule: Q01DX009 (ip), vehicle: saline with Tween-80
[10] = dose: 200.0 mg/kg/injection, schedule: Q01DX009 (ip), vehicle: saline with Tween-80
[11] = dose: 50.0 mg/kg/injection, schedule: Q01DX005 (ip), vehicle: saline with Tween-80
[12] = dose: 100.0 mg/kg/injection, schedule: Q01DX005 (ip), vehicle: saline with Tween-80
[13] = dose: 200.0 mg/kg/injection, schedule: Q01DX005 (ip), vehicle: saline with Tween-80
[14] = dose: 50.0 mg/kg/injection, schedule: Q01DX005 (ip), vehicle: saline
[15] = dose: 100.0 mg/kg/injection, schedule: Q01DX005 (ip), vehicle: saline
[16] = dose: 200.0 mg/kg/injection, schedule: Q01DX005 (ip), vehicle: saline
[17] = dose: 100.0 mg/kg/injection, schedule: Q01DX005 (ip), vehicle: Klucel (hydroxypropylcellulose) (HPC)
[18] = dose: 200.0 mg/kg/injection, schedule: Q01DX005 (ip), vehicle: Klucel (hydroxypropylcellulose) (HPC)

Measured: T/C

C=C1C(=O)OC2CC1C(O)C/C(C)=C/CC/C(C)=C/CCC2(C)O (stereo not given)
inactive: [1] 110 % of control | [2] 110 % of control | [3] 122 % of control and 92 % of control | [4] 105 % of control and 114 % of control | dose: 32.0 mg/kg/injection, schedule: Q01DX009 (ip), vehicle: Klucel (hydroxypropylcellulose) (HPC) 106 % of control and 107 % of control

C1Cc2onc(-c3noc4c3CCC4)c2C1
inactive: dose: 60.0 mg/kg/injection, schedule: Q01DX005 (ip), vehicle: saline 104 % of control | dose: 120.0 mg/kg/injection, schedule: Q01DX005 (ip), vehicle: saline 96 % of control | dose: 240.0 mg/kg/injection, schedule: Q01DX005 (ip), vehicle: saline 99 % of control

N=c1nc(N)ncn1-c1ccccc1
inactive: dose: 1.56 mg/kg/injection, schedule: Q01DX005 (ip), vehicle: saline with Tween-80 99 % of control and 102 % of control | [5] 103 % of control and 104 % of control | [6] 99 % of control and 102 % of control | [7] 102 % of control and 104 % of control and 108 % of control

C/C=C1\CN(C)CCC23C(=O)CC1C1COC(O)C(=O)N(c4ccccc42)C13 (stereo not given)
inactive: dose: 1.0 mg/kg/injection, schedule: Q01DX009 (ip), vehicle: Klucel (hydroxypropylcellulose) (HPC) 103 % of control | [1] 110 % of control | [2] 118 % of control | dose: 5.0 mg/kg/injection, schedule: Q01DX009 (ip), vehicle: saline 97 % of control | [3] 101 % of control | dose: 10.0 mg/kg/injection, schedule: Q01DX009 (ip), vehicle: saline 99 % of control | [4] 110 % of control | dose: 20.0 mg/kg/injection, schedule: Q01DX009 (ip), vehicle: saline 101 % of control

CC(C)(C)c1ccc(O)c(C(c2cc(C(C)(C)C)ccc2O)c2cc(C(C)(C)C)ccc2O)c1
inactive: dose: 100.0 mg/kg/injection, schedule: Q01DX001 (ip), vehicle: saline with Tween-80 97 % of control | dose: 200.0 mg/kg/injection, schedule: Q01DX001 (ip), vehicle: saline with Tween-80 98 % of control | dose: 400.0 mg/kg/injection, schedule: Q01DX001 (ip), vehicle: saline with Tween-80 98 % of control

c1ccc([S][Pb]([c]2ccccc2)([c]2ccccc2)[c]2ccccc2)cc1
inactive: dose: 6.25 mg/kg/injection, schedule: Q01DX001 (ip), vehicle: Klucel (hydroxypropylcellulose) (HPC) 96 % of control | dose: 12.5 mg/kg/injection, schedule: Q01DX001 (ip), vehicle: Klucel (hydroxypropylcellulose) (HPC) 122 % of control | dose: 25.0 mg/kg/injection, schedule: Q01DX001 (ip), vehicle: Klucel (hydroxypropylcellulose) (HPC) 114 % of control

CN1CCc2nc[nH]c2C1
inactive: dose: 100.0 mg/kg/injection, schedule: Q04DX002 (ip), vehicle: saline 97 % of control | dose: 200.0 mg/kg/injection, schedule: Q04DX002 (ip), vehicle: saline 101 % of control | dose: 400.0 mg/kg/injection, schedule: Q04DX002 (ip), vehicle: saline 99 % of control

CCOC(=O)C(=CNC(C)(C)C)C(=O)OCC
inactive: [8] 106 % of control | [9] 115 % of control | [10] 100 % of control

COc1ccc2cc1CCNC(=O)C1CCCN1C(=O)C1NCCC1O2 (stereo not given)
inactive: dose: 20.0 mg/kg/injection, schedule: Q01DX005 (ip), vehicle: Klucel (hydroxypropylcellulose) (HPC) 92 % of control | dose: 40.0 mg/kg/injection, schedule: Q01DX005 (ip), vehicle: Klucel (hydroxypropylcellulose) (HPC) 104 % of control | dose: 80.0 mg/kg/injection, schedule: Q01DX005 (ip), vehicle: Klucel (hydroxypropylcellulose) (HPC) 107 % of control

CCCC(=O)Oc1c(OC(=O)CCC)c(OC(=O)CCC)c(OC(=O)CCC)c(OC(=O)CCC)c1OC(=O)CCC
inactive: dose: 100.0 mg/kg/injection, schedule: Q04DX002 (ip), vehicle: saline with Tween-80 95 % of control | dose: 200.0 mg/kg/injection, schedule: Q04DX002 (ip), vehicle: saline with Tween-80 99 % of control | dose: 400.0 mg/kg/injection, schedule: Q04DX002 (ip), vehicle: saline with Tween-80 90 % of control

C=C(CC(O)(C(F)(F)F)C(F)(F)F)CC(O)(C(F)(F)F)C(F)(F)F
inactive: [5] 102 % of control | [6] 104 % of control | dose: 12.5 mg/kg/injection, schedule: Q01DX001 (ip), vehicle: saline with Tween-80 99 % of control | [7] 107 % of control | dose: 25.0 mg/kg/injection, schedule: Q01DX001 (ip), vehicle: saline with Tween-80 99 % of control

CC(O)C(NC(=O)OCc1ccccc1)C(=O)NCC(=O)NCC(=O)OCc1ccccc1 (stereo not drawn) (Cbz-[ξT]-Gly-Gly-OBn)
inactive: [11] 106 % of control | [12] 100 % of control | [13] 106 % of control

CCOC(=O)c1nc2ccccc2c(=O)[nH]1
inactive: [9] 102 % of control | [10] 108 % of control | dose: 400.0 mg/kg/injection, schedule: Q01DX009 (ip), vehicle: saline with Tween-80 100 % of control

CCCCNC(c1ccc(N(CC)CC)cc1)C(Br)(Br)Br (stereo not given)
inactive: [14] 114 % of control | [15] 101 % of control | [16] 107 % of control

CN(C)C(=O)n1cc(Cl)c(=O)c2c3ncn(C)c3ccc21
inactive: dose: 60.0 mg/kg/injection, schedule: Q01DX005 (ip), vehicle: Klucel (hydroxypropylcellulose) (HPC) 108 % of control | [17] 101 % of control | [18] 100 % of control

COc1ccc(S(=O)(=O)N/N=C\c2cc([N+](=O)[O-])ccc2O)cc1OC
inactive: [11] 109 % of control | [12] 109 % of control | [13] 100 % of control

CC1(C)N=C(N)N=C(N)N1c1ccc(OCC(=O)Nc2ccccc2)c(Cl)c1
inactive: dose: 25.0 mg/kg/injection, schedule: Q01DX009 (ip), vehicle: saline with Tween-80 100 % of control | dose: 25.0 mg/kg/injection, schedule: Q04DX003 (ip), vehicle: saline with Tween-80 100 % of control | [8] 104 % of control | dose: 50.0 mg/kg/injection, schedule: Q04DX003 (ip), vehicle: saline with Tween-80 100 % of control | [9] 109 % of control | dose: 100.0 mg/kg/injection, schedule: Q04DX003 (ip), vehicle: saline with Tween-80 113 % of control

CCCCNC(=O)SCCC(=O)OC
inactive: dose: 50.0 mg/kg/injection, schedule: Q01DX005 (ip), vehicle: Klucel (hydroxypropylcellulose) (HPC) 100 % of control | [17] 99 % of control | [18] 105 % of control

C[C@@H](O)[C@@H]1NC(=O)[C@H]([C@@H](C)O)NC1=O
inactive: [14] 99 % of control | [15] 99 % of control | [16] 99 % of control

Source: PubChem BioAssay AID330 (DTP/NCI, 2004)
